Assays:
Assay type in all cases: functional
Mus musculus [1] = organism: Mus musculus; experiment: Effective dose required for anticonvulsive activity in maximal electroshock seizure (MES) test
Mus musculus [2] = organism: Mus musculus; experiment: Effective dose required for anticonvulsive activity in pentylenetetrazole (PTZ) test
Mus musculus [3] = organism: Mus musculus; experiment: Anticonvulsive activity in picrotoxin (PCR) induced seizure test
Mus musculus [4] = organism: Mus musculus; experiment: Effective dose required for anticonvulsive activity in bicuculline (BIC) test
Mus musculus [5] = experiment: Protection from picrotoxin-induced (0.27 mmol/kg) convulsion over 6 hr at 100 mg/kg in 4 mice
Mus musculus [6] = experiment: Protection from picrotoxin-induced (0.27 mmol/kg) convulsion over 16 hr at 100 mg/kg in 4 mice
Mus musculus [7] = experiment: Protection from picrotoxin-induced (0.27 mmol/kg) convulsion over 3 hr at 100 mg/kg in 4 mice
Mus musculus [8] = experiment: Protection from picrotoxin-induced (0.27 mmol/kg) convulsion over 9 hr at 100 mg/kg in 4 mice
Mus musculus [9] = experiment: Effective dose required for anticonvulsive activity in pentylenetetrazole (PTZ) test at >0.1 mmol/kg
Mus musculus [10] = organism: Mus musculus; experiment: Effective dose required for anticonvulsive activity in bicuculline (BIC) test; Not effective
Mus musculus [11] = organism: Mus musculus; experiment: Effective dose required for anticonvulsive activity in maximal electroshock seizure (MES) test; Not effective
Mus musculus [12] = organism: Mus musculus; experiment: Anticonvulsive activity in picrotoxin (PCR) induced seizure test (ineffective)
Mus musculus [13] = organism: Mus musculus; experiment: Effective dose required for anticonvulsive activity in pentylenetetrazole (PTZ) test; Not effective

| SMILES | ED50 (Mus musculus [1]) [µmol/kg] | ED50 (Mus musculus [2]) [µmol/kg] | ED50 (Mus musculus [3]) [µmol/kg] | ED50 (Mus musculus [4]) [µmol/kg] | No. of mice protected (Mus musculus [5]) | No. of mice protected (Mus musculus [6]) | No. of mice protected (Mus musculus [7]) | No. of mice protected (Mus musculus [8]) | ED50 (Mus musculus [9]) [µmol/kg] | ED50 (Mus musculus [10]) [µmol/kg] | ED50 (Mus musculus [11]) [µmol/kg] | ED50 (Mus musculus [12]) [µmol/kg] | ED50 (Mus musculus [13]) [µmol/kg] |
| --- | --- | --- | --- | --- | --- | --- | --- | --- | --- | --- | --- | --- | --- |
| C=CC(CCC(=O)OC)NC(=O)C1CCCNC1 (stereo not drawn) | > 540 | 410 | 260 | 310 |  |  |  |  |  |  |  |  |  |
| C=CC(N)CCC(=O)N1CCC(C(=O)OC)CC1 (stereo not drawn) | > 540 | 320 | 260 | 150 | 2 | 0 | 2 | 0 |  |  |  |  |  |
| C=CC(N)CCC(=O)N1CCCC(C(=O)OC)C1 (stereo not drawn) | > 540 | 150 | 100 | 140 | 0 | 0 | 2 | 0 |  |  |  |  |  |
| C=CC(CCC(=O)OC)NC(=O)C1CCNCC1 (stereo not drawn) | > 540 | > 540 | 390 | 460 |  |  |  |  |  |  |  |  |  |
| C=CC(N)CCC(=O)N1CCCC1=O (stereo not drawn) | > 540 | > 540 | 260 | 200 |  |  |  |  |  |  |  |  |  |
| O=C1CCCN1 [2-PYRROLIDONE] |  |  |  |  |  |  |  |  | 540 | > 1000 | > 1000 | > 1000 |  |
| O=C(O)C1CCNCC1 [ISONIPECOTIC ACID] |  |  |  |  |  |  |  |  |  | > 1000 |  |  |  |
| O=C(O)C1CCCNC1 (stereo not drawn) [NIPECOTIC ACID] |  |  |  |  |  |  |  |  |  | > 1000 | > 1000 |  |  |
| C=CC(N)CCC(=O)O (stereo not drawn) [VIGABATRIN] |  |  | 210 | 220 | 4 | 0 | 4 | 3 |  |  | > 1000 |  | > 1000 |

From ChEMBL document CHEMBL1133497, “Design and synthesis of anticonvulsive agents as gamma-vinyl GABA-based potential dual acting prodrugs and their biological activities” (2000)
